# US20230346831A1, “METHODS FOR TREATING […] USING LOW DOSE CARBON MONOXIDE” (priority 2020, published 2023)
# Where “and” joins values, the source holds several entries; their conditions need not be identical. Equal entries are not always repeated.
# Tested on: MDA-MB-231/TGL cells
# Test: metabolomic assay (polar metabolite profiling, mass spectrometry)
# Type: cell-based, human
# Protocol: Cells were seeded in a 10 cm cell culture plate with DMEM containing 10% FBS, 0.2 mM L-glutamine and 1% penicillin/streptomycin. After 16 hours of incubation, metabolites were extracted from the cells using 80% methanol. The remaining steps were carried out with no change according to the methods of Goncalves et al, PNAS, 115:4, E743-E752 (2018). All data analyses were done using MetaboAnalyst.
# 7 × 10^6 cells were seeded in 10-cm cell culture plates with DMEM containing 10% FBS, 0.2 mM L-glutamine and 1% penicillin/streptomycin. Additionally, MCF7/TGL/pQ was cultured in media containing 0.5 µgml^-1 puromycin and 25 mM HEPES. After 16 hours of incubation, metabolites were extracted from the cells using 80% methanol. The remaining steps were carried out by Weill Cornell Medicine Proteomics and Metabolomics Core Facility according to M. D. Goncalves et al., Proc Natl Acad Sci USA 115, E743-E752 (2018). All data analyses were done using MetaboAnalyst 4.0 (www.metaboanalyst.ca/).
# To investigate whether 250 ppm CO mimics hypoxia, the HiF1α protein levels were examined in CO treated MCF7/TGL and MDA-MB-231/TGL cells. […] To determine whether 250 ppm CO affects metabolism, polar metabolites were profiled using two breast cancer cell lines, MCF7/TGL and MDA-MB-231/TGL (FIGS. 7-9).
# [1] = MDA-MB-231/TGL cells treated with CO (250 ppm), replicates CO 1-3
smiles,measurement,setting,value
"[C-]#[O+] [CO, Carbon monoxide]",cis-aconitic acid,"MCF7/TGL and MDA-MB-231/TGL cells, 250 ppm CO, 16 hours",significantly downregulated
same,Peak Height of metabolite intensity: 2-Hydroxycaproic acid (HMDB01624),[1],"244,811 and 833,959 and 281,142"
same,Peak Height of metabolite intensity: 2-Hydroxyvaleric acid (HMDB01863),[1],"621,532 and 904,968 and 786,820"
same,Peak Height of metabolite intensity: 2-Ketobutyric acid (HMDB00005),[1],"5,289,178 and 6,027,442 and 5,724,353"
same,Peak Height of metabolite intensity: 2-Ketohexanoic acid (HMDB01864),[1],"21,644,820 and 23,261,950"
same,Peak Height of metabolite intensity: 3-Hydroxyhippuric acid (HMDB06116),[1],"67,709 and 54,023 and 55,195"
same,Peak Height of metabolite intensity: 3-Hydroxymethylglutaric acid (HMDB00355),[1],"20,353,060 and 19,480,200 and 19,066,660"
same,Peak Height of metabolite intensity: 3-Phosphoglyceric acid (HMDB00807),[1],"2,076,132 and 820,562 and 843,315"
same,Peak Height of metabolite intensity: 3-hydroxyhexadecanoic acid (HMDB61658),[1],"119,550 and 182,677 and 362,311"
same,Peak Height of metabolite intensity: 4-Acetamidobutanoic acid (HMDB03681),[1],"438,862 and 501,312 and 487,324"
same,Peak Height of metabolite intensity: 4-Hydroxybenzaldehyde (HMDB11718),[1],"1,623,875 and 1,610,244 and 2,163,467"
same,Peak Height of metabolite intensity: 5-Adenosylhomocysteine (HMDB00939),[1],"502,295 and 543,231 and 555,202"
same,Peak Height of metabolite intensity: 5-Thymidylic acid (HMDB01227),[1],"1,061,384 and 1,368,086 and 1,260,084"
same,Peak Height of metabolite intensity: 5′-Methylthioadenosine (HMDB01173),[1],"1,678,515 and 1,980,683 and 3,013,280"
same,Peak Height of metabolite intensity: 6-Phosphogluconic acid (HMDB01316),[1],"394,956 and 515,553 and 654,253"
same,Peak Height of metabolite intensity: 7-Methylguanosine (HMDB01107),[1],"25,667 and 34,657 and 32,703"
same,Peak Height of metabolite intensity: (R)-3-Hydroxydecanoic acid (HMDB10725),[1],"88,715 and 193,751 and 99,729"
same,Peak Height of metabolite intensity: ADP (HMDB01341),[1],"4,962,730 and 5,529,189 and 5,002,783"
same,Peak Height of metabolite intensity: ADP-glucose (HMDB06557),[1],"84,781 and 90,192 and 99,689"
same,Peak Height of metabolite intensity: AICAR (HMDB01517),[1],"32,080 and 59,426"
same,Peak Height of metabolite intensity: Acetylcholine (HMDB00895),[1],"34,254,070 and 37,448,230 and 42,218,910"
same,Peak Height of metabolite intensity: Acetylcysteine (HMDB01890),[1],"3,133,666 and 3,527,413 and 3,894,968"
same,Peak Height of metabolite intensity: Adenine (HMDB00034),[1],"1,219,554 and 812,836 and 907,390"
same,Peak Height of metabolite intensity: Adenosine (HMDB00050),[1],"18,973,870 and 624,270 and 424,559"
same,Peak Height of metabolite intensity: Adenosine monophosphate (HMDB00045),[1],"6,997,849 and 8,959,282 and 6,609,897"
same,Peak Height of metabolite intensity: Adenosine triphosphate (HMDB00538),[1],"7,254,237 and 6,217,538 and 7,426,501"
same,Peak Height of metabolite intensity: Allantoic acid (HMDB01209),[1],"66,783 and 51,760 and 61,927"
same,Peak Height of metabolite intensity: Allantoin (HMDB00462),[1],"1,362,548 and 1,445,842 and 1,605,951"
same,Peak Height of metabolite intensity: Alpha-Lactose (HMDB00186),[1],"636,775 and 666,969 and 547,770"
same,Peak Height of metabolite intensity: Aminoadipic acid (HMDB00510),[1],"5,352,894 and 5,983,553 and 6,501,110"
same,Peak Height of metabolite intensity: Arachidonic acid (HMDB01043),[1],"219,569 and 129,238 and 117,457"
same,Peak Height of metabolite intensity: Argininosuccinic acid (HMDB00052),[1],"397,796 and 561,328 and 632,101"
same,Peak Height of metabolite intensity: Asymmetric dimethylarginine (HMDB01539),[1],"5,492,503 and 6,220,486 and 6,753,139"
same,Peak Height of metabolite intensity: Betaine (HMDB00043),[1],"126,207,200 and 122,297,900 and 134,080,700"
same,Peak Height of metabolite intensity: Biotin (HMDB00030),[1],"28,122 and 15,310"
same,Peak Height of metabolite intensity: CDP (HMDB01546),[1],"536,936 and 604,322 and 492,208"
same,Peak Height of metabolite intensity: CDP-Ethanolamine (HMDB01564),[1],"100,228 and 130,601 and 162,582"
same,Peak Height of metabolite intensity: Caprylic acid (HMDB00482),[1],"470,899 and 477,590 and 472,338"
same,Peak Height of metabolite intensity: Carnosine (HMDB00033),[1],"2,256,265 and 2,245,049 and 2,446,163"
same,Peak Height of metabolite intensity: Choline (HMDB00097),[1],"108,427,800 and 109,880,900 and 111,858,100"
same,Peak Height of metabolite intensity: Citicoline (HMDB01413),[1],"361,538 and 444,892 and 574,461"
same,Peak Height of metabolite intensity: Citric acid (HMDB00094),[1],"74,805,210 and 82,630,710 and 89,689,600"
same,Peak Height of metabolite intensity: Citrulline (HMDB00904),[1],"15,240,380 and 14,266,830 and 19,605,850"
same,Peak Height of metabolite intensity: Coenzyme A (HMDB01423),[1],"109,174 and 125,366 and 106,848"
same,Peak Height of metabolite intensity: Creatine (HMDB00064),[1],"123,445,200 and 119,145,800 and 129,072,700"
same,Peak Height of metabolite intensity: Creatinine (HMDB00562),[1],"23,236,710 and 23,501,360 and 25,483,820"
same,Peak Height of metabolite intensity: Cytidine (HMDB00089),[1],"225,855 and 258,465 and 227,521"
same,Peak Height of metabolite intensity: Cytidine monophosphate (HMDB00095),[1],"724,977 and 871,719 and 625,602"
same,Peak Height of metabolite intensity: Cytidine triphosphate (HMDB00082),[1],"183,937 and 215,682 and 295,169"
same,"Peak Height of metabolite intensity: D-2,3-Dihydroxypropanoic acid (HMDB31818)",[1],"2,140,143 and 2,437,835 and 2,431,980"
same,Peak Height of metabolite intensity: D-2-Hydroxyglutaric acid (HMDB00606),[1],"3,167,321 and 3,985,443 and 4,584,429"
same,Peak Height of metabolite intensity: D-Arabitol (HMDB00568),[1],"3,445,547 and 3,545,938 and 4,135,015"
same,Peak Height of metabolite intensity: D-Fructose (HMDB00660),[1],"6,135,849 and 6,547,945 and 7,210,193"
same,Peak Height of metabolite intensity: D-Glucose (HMDB00122),[1],"36,851,430 and 39,288,740 and 42,369,140"
same,Peak Height of metabolite intensity: D-Glyceraldehyde 3-phosphate (HMDB01112),[1],"6,590,523 and 2,998,173 and 3,562,678"
same,Peak Height of metabolite intensity: D-Ribose 5-phosphate (HMDB01548),[1],"624,479 and 581,839 and 786,584"
same,Peak Height of metabolite intensity: D-Ribose (HMDB00283),[1],"2,183,962 and 2,605,392 and 2,639,392"
same,Peak Height of metabolite intensity: D-Sedoheptulose 7-phosphate (HMDB01068),[1],"561,321 and 572,202 and 625,243"
same,Peak Height of metabolite intensity: DL-O-Phosphoserine (HMDB01721),[1],"185,294 and 163,584 and 141,059"
same,Peak Height of metabolite intensity: Deoxyinosine (HMDB00071),[1],"8,871 and 6,834 and 15,777"
same,Peak Height of metabolite intensity: Deoxyribose 5-phosphate (HMDB01031),[1],"50,751 and 42,917 and 52,112"
same,Peak Height of metabolite intensity: Deoxyuridine (HMDB00012),[1],"40,015 and 22,277 and 25,003"
same,Peak Height of metabolite intensity: Dimethylglycine (HMDB00092),[1],"10,914,430 and 13,334,130 and 17,506,690"
same,Peak Height of metabolite intensity: Erythritol (HMDB02994),[1],"598,716 and 590,438 and 628,349"
same,"Peak Height of metabolite intensity: Fructose 1,6-bisphosphate (HMDB01058)",[1],"10,176,490 and 12,986,490 and 13,433,710"
same,Peak Height of metabolite intensity: Fructose 6-phosphate (HMDB00124),[1],"2,660,942 and 2,572,195 and 2,965,940"
same,Peak Height of metabolite intensity: Fumaric acid (HMDB00134),[1],"8,464,455 and 9,727,776 and 11,821,440"
same,Peak Height of metabolite intensity: GDP-glucose (HMDB03351),[1],"92,740 and 103,248 and 99,915"
same,Peak Height of metabolite intensity: Gluconic acid (HMDB00625),[1],"37,957,970 and 52,856,170 and 64,673,460"
same,Peak Height of metabolite intensity: Glucosamine 6-phosphate (HMDB01254),[1],"529,990 and 692,898 and 945,530"
same,Peak Height of metabolite intensity: Glucose 6-phosphate (HMDB01401),[1],"2,103,241 and 2,833,469 and 3,624,968"
same,Peak Height of metabolite intensity: Glutathione (HMDB00125),[1],"99,156,710 and 109,797,600 and 130,505,000"
same,Peak Height of metabolite intensity: Glycerol3-phosphate (HMDB00126),[1],"758,556 and 825,062 and 1,025,018"
same,Peak Height of metabolite intensity: Glycerophosphocholine (HMDB00086),[1],"347,562,900 and 361,214,700 and 419,624,900"
same,Peak Height of metabolite intensity: Glycine (HMDB00123),[1],"45,296,030 and 53,615,700 and 58,796,920"
same,Peak Height of metabolite intensity: Guanosine (HMDB00133),[1],"619,336 and 155,195 and 131,494"
same,Peak Height of metabolite intensity: Guanosine diphosphate (HMDB01201),[1],"493,573 and 471,968 and 538,827"
same,Peak Height of metabolite intensity: Guanosine monophosphate (HMDB01397),[1],"465,594 and 655,797 and 560,973"
same,Peak Height of metabolite intensity: Hippuric acid (HMDB00714),[1],"47,961 and 38,230 and 36,149"
same,Peak Height of metabolite intensity: Hypotaurine (HMDB00965),[1],"6,754,939 and 7,052,286 and 8,446,435"
same,Peak Height of metabolite intensity: Hypoxanthine (HMDB00157),[1],"211,957 and 135,595 and 141,122"
same,Peak Height of metabolite intensity: Imidazolelactic acid (HMDB02320),[1],"128,804 and 165,439 and 221,241"
same,Peak Height of metabolite intensity: Indolelactic acid (HMDB00671),[1],"84,732 and 90,304 and 155,173"
same,Peak Height of metabolite intensity: Inosine (HMDB00195),[1],"2,168,084 and 318,912 and 236,433"
same,Peak Height of metabolite intensity: Inosinic acid (HMDB00175),[1],"178,233 and 246,521 and 243,587"
same,Peak Height of metabolite intensity: Kynurenic acid (HMDB00715),[1],"51,692 and 41,122 and 61,792"
same,Peak Height of metabolite intensity: L-Acetylcarnitine (HMDB00201),[1],"106,933,600 and 121,142,500 and 148,690,900"
same,Peak Height of metabolite intensity: L-Arginine (HMDB00517),[1],"31,387,180 and 29,265,460 and 31,837,150"
same,Peak Height of metabolite intensity: L-Asparagine (HMDB00168),[1],"21,992,250 and 21,453,690 and 27,389,900"
